IC50 data for 39 molecules are collected here from US20240132464A1, “HETEROCYCLIC COMPOUNDS AS E3 LIGASE INHIBITORS” (Accutar Biotechnology Inc., priority 2022, published 2024).

This test concerns the target T1, GID4 (Uniprot ID: Q81VV7, residues 124-289) (Homo sapiens, UniProt Q8IVV7).
T1 construct: GID4 (Uniprot ID: Q81VV7, residues 124-289)
T1 sequence (Q8IVV7 124-289): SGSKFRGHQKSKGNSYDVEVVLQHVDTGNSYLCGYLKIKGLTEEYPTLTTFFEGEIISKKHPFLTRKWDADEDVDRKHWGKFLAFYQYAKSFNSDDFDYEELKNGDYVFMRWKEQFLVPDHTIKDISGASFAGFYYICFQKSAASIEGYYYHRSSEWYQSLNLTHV
Kind of test: GID4 competitive binding assay (AlphaScreen, GID4/degron peptide PGLW). The following applies: 24 nM GID4, 48 nM biotinylated degron peptide PGLW, 4° C., read-out: IC50 (Inhibition of GID4/Degron binding by test compounds). The method in brief: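 Displacement of biotin-tagged degron tetrapeptide PGLW (48 nM) from C-terminally 6His-tagged GID4 124-289 (24 nM) read by AlphaScreen proximity signal. Compound incubation 2 h, then beads 1 h, all at 4 °C, pH 7.5, 2% DMSO final; background-corrected inhibition fitted with variable slope for IC50.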
`CC(C)c1cc(N2CCNC(c3ccccc3I)C2)nc(N)n1` (stereo not drawn) [Compound 176, 4-(3-(2-iodophenyl)piperazin-1-yl)-6-isopropylpyrimidin-2-amine]: the IC50 was below 500 nM. On to `CN1CC(CNC(=O)c2ccc(-c3cc(O)c4ncccc4c3)cc2)C1` [Compound 298, 4-(8-hydroxyquinolin-6-yl)-N-((1-methylazetidin-3-yl)methyl)benzamide], for which the IC50 was below 500 nM. For `CNCCCNC(=O)c1ccc(-c2cc(O)c3ncccc3c2)cc1` [Compound 303, 4-(8-hydroxyquinolin-6-yl)-N-(3-(methylamino)propyl)benzamide] the value was below 500 nM; for `Nc1nccc2ccc(-c3csc(C(=O)N4CCCC4)c3)cc12` [Compound 349, (4-(1-aminoisoquinolin-7-yl)thiophen-2-yl)(pyrrolidin-1-yl)methanone], above 5000 nM; for `Nc1nccc2c(O)cc(-c3cccc(C(=O)N4CCCC4)c3)cc12` [Compound 266, (3-(1-amino-5-hydroxyisoquinolin-7-yl)phenyl)(pyrrolidin-1-yl)methanone], above 5000 nM. Take `CN1CCN(c2cc(N)nc(NC3CC3)n2)CC1c1ccccc1Br` (stereo not drawn) [Compound 71, 6-(3-(2-bromophenyl)-4-methylpiperazin-1-yl)-N2-cyclopropylpyrimidine-2,4-diamine]: the IC50 was below 500 nM. For `Cc1cc(N2CCCC(c3ccn[nH]3)C2)nc(N)n1` (stereo not drawn) [Compound 209, 4-(3-(1H-pyrazol-5-yl)piperidin-1-yl)-6-methylpyrimidin-2-amine], the IC50 was above 5000 nM. For `Nc1nc(NC2CC2)c(Cl)c(N2CCNC(c3ccccc3Br)C2)n1` (stereo not drawn) [Compound 63, 6-(3-(2-bromophenyl)piperazin-1-yl)-5-chloro-N4-cyclopropylpyrimidine-2,4-diamine] the value was 500 to 5000 nM.

As for `CN(C)CCCNC(=O)CN1CC=C(c2cc(O)c3ncccc3c2)CC1` [Compound 307, N-(3-(dimethylamino)propyl)-2-(4-(8-hydroxyquinolin-6-yl)-3,6-dihydropyridin-1(2H)-yl)acetamide], the IC50 is below 500 nM. Take `Nc1nc(NC2CC2)nc(N2CCN(CCO)C(c3ccccc3Br)C2)n1` (stereo not drawn) [Compound 53, 2-(4-(4-amino-6-(cyclopropylamino)-1,3,5-triazin-2-yl)-2-(2-bromophenyl)piperazin-1-yl)ethan-1-ol]: the IC50 was above 5000 nM. For `CC(C)c1cc(N2CCNC(c3ccccc3Br)C2)nc(N)n1` (stereo not drawn) [Compound 183, 4-(3-(2-bromophenyl)piperazin-1-yl)-6-isopropylpyrimidin-2-amine], the IC50 is below 500 nM. Consider `CC(=O)N1CCN(c2cc(N)nc(N)n2)C[C@H]1c1ccccc1Br` (stereo in doubt) [Compound 60, (R/S)-1-(2-(2-bromophenyl)-4-(2,6-diaminopyrimidin-4-yl)piperazin-1-yl)ethan-1-one], for which the IC50 was above 5000 nM. Turning to `Nc1nc2c(c(N3CCCC(c4ccn[nH]4)C3)n1)CSCC2` (stereo not drawn) [Compound 208, 4-(3-(1H-pyrazol-5-yl)piperidin-1-yl)-7,8-dihydro-5H-thiopyrano[4,3-d]pyrimidin-2-amine], the IC50 is above 5000 nM. For the molecule `CCOc1ccc(Br)c(C2CN(c3cc(C(C)C)nc(N)n3)CCN2)c1` (single isomer, unassigned) [Compound 26, (S/R)-4-(3-(2-bromo-5-ethoxyphenyl)piperazin-1-yl)-6-isopropylpyrimidin-2-amine], the IC50 lay in the range of 500 to 5000 nM. As to `CN1CCC(CNC(=O)c2n[nH]c3ccc(-c4ccc5ccnc(N)c5c4)cc23)CC1` [Compound 337, 5-(1-aminoisoquinolin-7-yl)-N-((1-methylpiperidin-4-yl)methyl)-1H-indazole-3-carboxamide], the IC50 is below 500 nM.

Consider `CCCNC(=O)c1ccc(-c2cc(O)c3ncccc3c2)cc1` [Compound 302, 4-(8-hydroxyquinolin-6-yl)-N-propylbenzamide], for which the IC50 was in the range of 500 to 5000 nM. Turning to `CC(C)c1nc(N2CCNC(c3cnc4ccccn34)C2)c2cc[nH]c2n1` (stereo not drawn) [Compound 375, 4-(3-(imidazo[1,2-a]pyridin-3-yl)piperazin-1-yl)-2-isopropyl-7H-pyrrolo[2,3-d]pyrimidine], the IC50 was below 500 nM.

As for `Nc1nc(NCC2CC2)cc(N2CCN[C@@H](c3ccccc3Br)C2)n1` (racemic) [Compound 112, (S/R)-6-(3-(2-bromophenyl)piperazin-1-yl)-N4-(cyclopropylmethyl)pyrimidine-2,4-diamine], the IC50 was below 500 nM.

For `CC(C)c1cc(N2C=C(c3ccccc3Br)CCC2)nc(N)n1` [Compound 227, 4-(5-(2-bromophenyl)-3,4-dihydropyridin-1(2H)-yl)-6-isopropylpyrimidin-2-amine], the IC50 fell in the range of 500 to 5000 nM.

On to `CN(C)[C@H]1C[C@@H](NC(=O)c2ccc(-c3cc(O)c4ncccc4c3)cc2)C1` [Compound 279, N-(cis-3-(dimethylamino)cyclobutyl)-4-(8-hydroxyquinolin-6-yl)benzamide], for which the IC50 is below 500 nM. On to `Nc1cc(N2CCC=C(c3ncn4ccccc34)C2)nc(N)n1` [Compound 237, 6-(5-(imidazo[1,5-a]pyridin-1-yl)-3,6-dihydropyridin-1(2H)-yl)pyrimidine-2,4-diamine], for which the IC50 was 500 to 5000 nM. For the molecule `CC(C)c1cc(N2CCCC(c3c[nH]c4ccccc34)C2)nc(N)n1` (stereo not drawn) [Compound 249, 4-(3-(1H-indol-3-yl)piperidin-1-yl)-6-isopropylpyrimidin-2-amine], the IC50 lay within 500 to 5000 nM.

As to `CNc1nc(C(C)C)cc(N2CCNC(c3ccccc3Br)C2)n1` (single isomer, unassigned) [Compound 153, R or S-4-(3-(2-bromophenyl)piperazin-1-yl)-6-isopropyl-N-methylpyrimidin-2-amine], the IC50 lay in the range of 500 to 5000 nM. As to `CN1CCN(c2cc(NCC3CC3)nc(N)n2)C[C@@H]1c1ccccc1Br` (racemic) [Compound 100, (S/R)-6-(3-(2-bromophenyl)-4-methylpiperazin-1-yl)-N4-(cyclopropylmethyl)pyrimidine-2,4-diamine], the IC50 was above 5000 nM. Regarding `COC1CCN(C(=O)c2cccc(-c3ccc4ccnc(N)c4c3)c2)CC1` [Compound 346, (3-(1-aminoisoquinolin-7-yl)phenyl)(4-methoxypiperidin-1-yl)methanone], the IC50 lay in the range of 500 to 5000 nM.

Take `O=C1NCCc2cc(-c3cccc(C(=O)N4CCCC4)c3)ccc21` [Compound 278, 6-(3-(pyrrolidine-1-carbonyl)phenyl)-3,4-dihydroisoquinolin-1(2H)-one]: the IC50 fell in the range of 500 to 5000 nM.

For `CC(C)c1nc(N2CCNC(c3cnc4ccccn34)C2)c2nc[nH]c2n1` (stereo not drawn) [Compound 373, 6-(3-(imidazo[1,2-a]pyridin-3-yl)piperazin-1-yl)-2-isopropyl-9H-purine], the IC50 was below 500 nM. On to `CN1CCN(c2cc(NC3CC3)nc(N)n2)CC1c1ccccc1Br` (stereo not drawn) [Compound 101, 6-(3-(2-bromophenyl)-4-methylpiperazin-1-yl)-N4-cyclopropylpyrimidine-2,4-diamine], for which the IC50 was below 500 nM. With `CC(C)c1cc(N2CCCCC(O)(c3ccccc3Br)C2)nc(N)n1` (stereo not drawn) [Compound 226, 1-(2-amino-6-isopropylpyrimidin-4-yl)-3-(2-bromophenyl)azepan-3-ol] the figure was above 5000 nM. Take `Nc1nc(N2CCN[C@@H](c3ccccc3Br)C2)c2[nH]ccc2n1` (racemic) [Compound 43, (S/R)-4-(3-(2-bromophenyl)piperazin-1-yl)-5H-pyrrolo[3,2-d]pyrimidin-2-amine]: the IC50 is 500 to 5000 nM. With `CC(C)c1cc(N2CCCC(c3cnc4ccccn34)C2)c2nc[nH]c2n1` (stereo not drawn) [Compound 19, 7-(3-(imidazo[1,2-a]pyridin-3-yl)piperidin-1-yl)-5-isopropyl-3H-imidazo[4,5-b]pyridine] the figure was below 500 nM. Take `CC(C)c1cc(N2CCNC(c3cc(F)ccc3Br)C2)nc(N)n1` (stereo not drawn) [Compound 174, 4-(3-(2-bromo-5-fluorophenyl)piperazin-1-yl)-6-isopropylpyrimidin-2-amine]: the IC50 was in the range of 500 to 5000 nM. In the case of `Nc1cc(N2CCOC(c3ccccc3Br)C2)nc(N)n1` (racemic) [Compound 145, (R/S)-6-(2-(2-bromophenyl)morpholino)pyrimidine-2,4-diamine], the IC50 lay in the range of 500 to 5000 nM. `CNc1nc(N)cc(N2CCCC(c3cnc4ccccn34)C2)n1` (racemic) [Compound 117, (S/R)-6-(3-(imidazo[1,2-a]pyridin-3-yl)piperidin-1-yl)-N2-methylpyrimidine-2,4-diamine]: the IC50 lay within 500 to 5000 nM. Turning to `CC(C)c1cc(N2CCCNC(c3ccccc3Br)C2)nc(N)n1` (stereo not drawn) [Compound 220, 4-(3-(2-bromophenyl)-1,4-diazepan-1-yl)-6-isopropylpyrimidin-2-amine], the IC50 fell in the range of 500 to 5000 nM.

Take `CN(C)CCCNC(=O)c1ccc(-c2cc(O)c3ncc(=O)[nH]c3c2)cc1` [Compound 273, N-(3-(dimethylamino)propyl)-4-(8-hydroxy-3-oxo-3,4-dihydroquinoxalin-6-yl)benzamide]: the IC50 lay within 500 to 5000 nM. Take `Nc1nc(N2CCCC(c3ccn[nH]3)C2)c2[nH]cnc2n1` (stereo not drawn) [Compound 207, 6-(3-(1H-pyrazol-5-yl)piperidin-1-yl)-7H-purin-2-amine]: the IC50 is above 5000 nM. Turning to `CC(C)c1cc(N2CCNC(c3cc(C(F)(F)F)ccc3Br)C2)nc(N)n1` (single isomer, unassigned) [Compound 13, (R/S)-4-(3-(2-bromo-5-(trifluoromethyl)phenyl)piperazin-1-yl)-6-isopropylpyrimidin-2-amine], the IC50 was below 500 nM. On to `CC(C)c1nc(N)cc(N2CCCC(c3cnc4ccccn34)C2)n1` (single isomer, unassigned) [Compound 142, R or S-6-(3-(imidazo[1,2-a]pyridin-3-yl)piperidin-1-yl)-2-isopropylpyrimidin-4-amine], for which the IC50 is below 500 nM.
